ChEMBL document CHEMBL4507269, “Data for DCP probe BAY-386” (2021)

Columns and labels:
[1] = target: Calcium-dependent protein kinase 1 (Plasmodium falciparum) (UniProt P62344); settings: Compound concentration 1000.0 nM
[2] = target: BMP-2-inducible protein kinase (Homo sapiens) (UniProt Q9NSY1); settings: Compound concentration 1000.0 nM
[3] = target: Calcium/calmodulin-dependent protein kinase type II subunit alpha (Homo sapiens) (UniProt Q9UQM7); settings: Compound concentration 1000.0 nM
[4] = target: cAMP-dependent protein kinase catalytic subunit PRKX (Homo sapiens) (UniProt P51817); settings: Compound concentration 1000.0 nM
[5] = target: Leukocyte tyrosine kinase receptor (Homo sapiens) (UniProt P29376); settings: Compound concentration 1000.0 nM
Sequence of Leukocyte tyrosine kinase receptor (Homo sapiens) (P29376 whole entry): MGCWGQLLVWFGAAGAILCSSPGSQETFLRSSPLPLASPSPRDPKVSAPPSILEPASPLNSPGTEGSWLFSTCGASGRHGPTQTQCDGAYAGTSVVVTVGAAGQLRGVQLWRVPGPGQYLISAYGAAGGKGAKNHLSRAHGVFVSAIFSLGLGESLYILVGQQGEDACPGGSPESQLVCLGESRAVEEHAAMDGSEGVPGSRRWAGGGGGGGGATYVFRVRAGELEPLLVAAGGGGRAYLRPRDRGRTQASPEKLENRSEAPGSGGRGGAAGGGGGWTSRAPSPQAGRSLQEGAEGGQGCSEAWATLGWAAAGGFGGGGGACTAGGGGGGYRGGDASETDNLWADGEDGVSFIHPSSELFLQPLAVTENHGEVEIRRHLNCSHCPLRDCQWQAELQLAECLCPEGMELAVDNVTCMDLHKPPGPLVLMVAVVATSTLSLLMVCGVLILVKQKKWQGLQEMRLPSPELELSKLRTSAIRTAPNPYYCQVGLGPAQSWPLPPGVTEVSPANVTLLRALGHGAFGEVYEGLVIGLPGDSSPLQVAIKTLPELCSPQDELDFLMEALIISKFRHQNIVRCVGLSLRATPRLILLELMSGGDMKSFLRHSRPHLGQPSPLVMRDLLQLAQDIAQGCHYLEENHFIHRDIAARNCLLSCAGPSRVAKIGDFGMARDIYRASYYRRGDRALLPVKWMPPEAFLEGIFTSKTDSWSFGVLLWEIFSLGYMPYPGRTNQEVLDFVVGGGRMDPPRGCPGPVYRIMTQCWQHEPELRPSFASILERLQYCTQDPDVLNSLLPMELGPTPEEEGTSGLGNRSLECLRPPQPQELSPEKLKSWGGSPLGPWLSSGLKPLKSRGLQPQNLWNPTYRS

[6] = target: Serine/threonine-protein kinase DCLK2 (Homo sapiens) (UniProt Q8N568); settings: Compound concentration 1000.0 nM
[7] = target: Inhibitor of nuclear factor kappa-B kinase subunit epsilon (Homo sapiens) (UniProt Q14164); settings: Compound concentration 1000.0 nM
[8] = target: Receptor tyrosine-protein kinase erbB-2 (Homo sapiens) (UniProt P04626); settings: Compound concentration 1000.0 nM
[9] = target: Serine/threonine-protein kinase PAK 2 (Homo sapiens) (UniProt Q13177); settings: Compound concentration 1000.0 nM
[10] = tested on: Tyrosine-protein kinase ABL1 (Homo sapiens), P00519 [F317I]; settings: Compound concentration 1000.0 nM
[11] = target: Macrophage colony-stimulating factor 1 receptor (Homo sapiens) (UniProt P07333); settings: Compound concentration 1000.0 nM
Sequence of Macrophage colony-stimulating factor 1 receptor (Homo sapiens) (P07333 whole entry): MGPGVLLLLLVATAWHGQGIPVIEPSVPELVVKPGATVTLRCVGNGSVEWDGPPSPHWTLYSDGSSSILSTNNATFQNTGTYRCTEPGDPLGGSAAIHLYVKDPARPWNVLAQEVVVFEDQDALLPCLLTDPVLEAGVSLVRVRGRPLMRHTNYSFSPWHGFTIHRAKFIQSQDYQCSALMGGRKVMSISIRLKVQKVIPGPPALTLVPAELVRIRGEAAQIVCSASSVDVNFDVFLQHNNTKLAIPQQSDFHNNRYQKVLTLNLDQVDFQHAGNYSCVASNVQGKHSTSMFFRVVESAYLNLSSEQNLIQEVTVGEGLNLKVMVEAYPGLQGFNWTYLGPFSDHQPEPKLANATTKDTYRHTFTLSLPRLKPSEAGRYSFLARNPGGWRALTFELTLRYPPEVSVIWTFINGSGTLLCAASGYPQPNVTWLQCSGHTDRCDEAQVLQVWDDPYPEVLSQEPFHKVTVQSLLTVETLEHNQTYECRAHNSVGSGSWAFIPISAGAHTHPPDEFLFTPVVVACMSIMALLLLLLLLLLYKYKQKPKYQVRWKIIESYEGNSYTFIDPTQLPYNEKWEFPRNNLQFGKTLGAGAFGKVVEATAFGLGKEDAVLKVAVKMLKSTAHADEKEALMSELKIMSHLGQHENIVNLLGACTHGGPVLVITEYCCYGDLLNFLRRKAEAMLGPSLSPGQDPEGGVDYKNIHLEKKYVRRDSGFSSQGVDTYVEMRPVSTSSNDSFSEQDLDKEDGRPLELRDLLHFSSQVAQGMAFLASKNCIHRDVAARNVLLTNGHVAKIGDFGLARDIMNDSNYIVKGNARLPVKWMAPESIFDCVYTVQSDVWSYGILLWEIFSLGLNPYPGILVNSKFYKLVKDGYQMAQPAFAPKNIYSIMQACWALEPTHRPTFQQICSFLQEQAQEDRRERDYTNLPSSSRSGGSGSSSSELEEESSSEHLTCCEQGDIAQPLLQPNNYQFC

[12] = target: Maternal embryonic leucine zipper kinase (Homo sapiens) (UniProt Q14680); settings: Compound concentration 1000.0 nM
[13] = target: ALK tyrosine kinase receptor (Homo sapiens) (UniProt Q9UM73); settings: Compound concentration 1000.0 nM
[14] = target: SRSF protein kinase 2 (Homo sapiens) (UniProt P78362); settings: Compound concentration 1000.0 nM
[15] = target: D(2) dopamine receptor (Homo sapiens) (UniProt P14416); settings: Compound concentration 10.0 uM
[16] = target: Ephrin type-A receptor 2 (Homo sapiens) (UniProt P29317); settings: Compound concentration 1000.0 nM
[17] = target: P2Y purinoceptor 2 (Homo sapiens) (UniProt P41231); assay: P2Y2 (h) Eurofins-Cerep Cellular and Nuclear Receptor Functional Assays; settings: Compound concentration 10.0 uM
Sequence of P2Y purinoceptor 2 (Homo sapiens) (P41231 whole entry): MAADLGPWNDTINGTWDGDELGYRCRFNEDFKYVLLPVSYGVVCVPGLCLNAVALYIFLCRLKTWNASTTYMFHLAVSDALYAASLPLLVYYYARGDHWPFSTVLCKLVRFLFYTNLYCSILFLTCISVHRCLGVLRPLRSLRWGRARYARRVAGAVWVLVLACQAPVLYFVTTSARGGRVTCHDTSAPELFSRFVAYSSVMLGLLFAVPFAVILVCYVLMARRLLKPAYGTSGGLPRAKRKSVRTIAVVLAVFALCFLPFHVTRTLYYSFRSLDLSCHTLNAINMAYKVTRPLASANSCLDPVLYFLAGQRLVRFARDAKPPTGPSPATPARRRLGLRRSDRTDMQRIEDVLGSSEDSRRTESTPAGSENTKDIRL

[18] = target: Cyclin-dependent kinase 8 (Homo sapiens) (UniProt P49336); settings: Compound concentration 1000.0 nM
[19] = target: Tyrosine-protein kinase Tec (Homo sapiens) (UniProt P42680); settings: Compound concentration 1000.0 nM
[20] = target: Serine/threonine-protein kinase Nek1 (Homo sapiens) (UniProt Q96PY6); settings: Compound concentration 1000.0 nM
[21] = target: Tyrosine-protein kinase Srms (Homo sapiens) (UniProt Q9H3Y6); settings: Compound concentration 1000.0 nM
[22] = target: Phosphatidylinositol 4-phosphate 5-kinase type-1 gamma (Homo sapiens) (UniProt O60331); settings: Compound concentration 1000.0 nM
[23] = target: Vascular endothelial growth factor receptor 1 (Homo sapiens) (UniProt P17948); settings: Compound concentration 1000.0 nM
[24] = target: Calcium/calmodulin-dependent protein kinase type 1B (Homo sapiens) (UniProt Q6P2M8); settings: Compound concentration 1000.0 nM
[25] = target: cAMP-dependent protein kinase catalytic subunit beta (Homo sapiens) (UniProt P22694); settings: Compound concentration 1000.0 nM
[26] = target: Rho-associated protein kinase 2 (Homo sapiens) (UniProt O75116); settings: Compound concentration 1000.0 nM
[27] = target: SNF-related serine/threonine-protein kinase (Homo sapiens) (UniProt Q9NRH2); settings: Compound concentration 1000.0 nM
[28] = target: Homeodomain-interacting protein kinase 4 (Homo sapiens) (UniProt Q8NE63); settings: Compound concentration 1000.0 nM
Sequence of Homeodomain-interacting protein kinase 4 (Homo sapiens) (Q8NE63 whole entry): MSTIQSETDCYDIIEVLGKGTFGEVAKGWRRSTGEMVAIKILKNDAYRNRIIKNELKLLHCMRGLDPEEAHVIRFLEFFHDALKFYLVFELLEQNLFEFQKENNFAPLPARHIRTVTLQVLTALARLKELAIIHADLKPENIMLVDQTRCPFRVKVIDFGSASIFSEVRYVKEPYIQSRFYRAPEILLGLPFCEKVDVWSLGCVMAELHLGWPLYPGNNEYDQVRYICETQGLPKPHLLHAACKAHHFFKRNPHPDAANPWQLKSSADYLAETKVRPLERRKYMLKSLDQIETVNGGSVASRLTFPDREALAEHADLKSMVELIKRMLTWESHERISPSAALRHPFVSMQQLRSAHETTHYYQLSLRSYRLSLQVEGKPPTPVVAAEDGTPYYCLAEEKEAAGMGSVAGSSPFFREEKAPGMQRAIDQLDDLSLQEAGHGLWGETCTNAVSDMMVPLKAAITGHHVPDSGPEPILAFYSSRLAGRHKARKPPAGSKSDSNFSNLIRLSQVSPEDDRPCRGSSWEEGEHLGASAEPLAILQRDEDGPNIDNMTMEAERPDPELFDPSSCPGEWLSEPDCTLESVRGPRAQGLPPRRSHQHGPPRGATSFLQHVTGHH

[29] = target: Alpha-2B adrenergic receptor (Homo sapiens) (UniProt P18089); settings: Compound concentration 10.0 uM
[30] = target: Cyclin-dependent kinase 3 (Homo sapiens) (UniProt Q00526); settings: Compound concentration 1000.0 nM
[31] = target: Activin receptor type-2A (Homo sapiens) (UniProt P27037); settings: Compound concentration 1000.0 nM
Sequence of Activin receptor type-2A (Homo sapiens) (P27037 whole entry): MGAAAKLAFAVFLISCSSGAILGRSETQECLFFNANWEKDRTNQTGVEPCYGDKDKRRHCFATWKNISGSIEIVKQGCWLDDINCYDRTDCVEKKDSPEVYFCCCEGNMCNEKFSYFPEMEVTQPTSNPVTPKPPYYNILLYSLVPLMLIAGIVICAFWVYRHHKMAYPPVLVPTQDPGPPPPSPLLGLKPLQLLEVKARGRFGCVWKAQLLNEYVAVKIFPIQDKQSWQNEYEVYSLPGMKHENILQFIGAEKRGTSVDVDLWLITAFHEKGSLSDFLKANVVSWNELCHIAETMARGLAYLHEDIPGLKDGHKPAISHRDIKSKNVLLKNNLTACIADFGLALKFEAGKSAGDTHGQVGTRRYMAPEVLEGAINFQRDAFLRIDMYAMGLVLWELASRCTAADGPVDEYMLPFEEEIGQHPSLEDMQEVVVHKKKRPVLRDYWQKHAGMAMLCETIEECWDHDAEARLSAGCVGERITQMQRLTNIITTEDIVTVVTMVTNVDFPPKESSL

[32] = target: Beta-adrenergic receptor kinase 1 (Homo sapiens) (UniProt P25098); settings: Compound concentration 1000.0 nM
Sequence of Beta-adrenergic receptor kinase 1 (Homo sapiens) (P25098 whole entry): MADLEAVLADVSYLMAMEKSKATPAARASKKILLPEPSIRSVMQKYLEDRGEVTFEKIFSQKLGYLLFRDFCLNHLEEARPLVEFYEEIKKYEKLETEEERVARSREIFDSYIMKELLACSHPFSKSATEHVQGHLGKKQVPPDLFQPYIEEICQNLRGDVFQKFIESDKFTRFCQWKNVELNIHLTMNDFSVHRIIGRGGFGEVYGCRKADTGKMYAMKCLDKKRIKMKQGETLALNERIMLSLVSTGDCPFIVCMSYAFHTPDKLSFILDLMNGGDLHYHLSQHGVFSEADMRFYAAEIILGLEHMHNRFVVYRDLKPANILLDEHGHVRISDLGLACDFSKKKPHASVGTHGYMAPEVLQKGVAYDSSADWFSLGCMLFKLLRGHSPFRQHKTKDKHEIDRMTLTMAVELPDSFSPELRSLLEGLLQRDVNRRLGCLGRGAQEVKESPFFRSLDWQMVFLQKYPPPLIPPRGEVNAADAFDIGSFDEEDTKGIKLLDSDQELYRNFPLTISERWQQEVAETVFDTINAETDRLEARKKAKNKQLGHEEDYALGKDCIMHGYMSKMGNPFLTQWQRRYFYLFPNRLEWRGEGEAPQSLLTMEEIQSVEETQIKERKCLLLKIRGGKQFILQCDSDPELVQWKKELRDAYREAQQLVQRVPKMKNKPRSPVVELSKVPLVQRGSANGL

[33] = target: Ribosomal protein S6 kinase alpha-5 (Homo sapiens) (UniProt O75582); settings: Compound concentration 1000.0 nM
[34] = tested on: Serine/threonine-protein kinase B-raf (Homo sapiens), P15056 [V600E]; settings: Compound concentration 1000.0 nM
[35] = tested on: Hepatocyte growth factor receptor (Homo sapiens), P08581 [Y1235D]; settings: Compound concentration 1000.0 nM
[36] = target: Vascular endothelial growth factor receptor 3 (Homo sapiens) (UniProt P35916); settings: Compound concentration 1000.0 nM
[37] = target: Serine/threonine-protein kinase PAK 4 (Homo sapiens) (UniProt O96013); settings: Compound concentration 1000.0 nM
[38] = target: Atypical kinase COQ8B, mitochondrial (Homo sapiens) (UniProt Q96D53); settings: Compound concentration 1000.0 nM
[39] = target: Tyrosine-protein kinase JAK1 (Homo sapiens) (UniProt P23458); settings: Compound concentration 1000.0 nM
[40] = target: Receptor-type tyrosine-protein kinase FLT3 (Homo sapiens) (UniProt P36888); settings: Compound concentration 1000.0 nM
[41] = tested on: Receptor-type tyrosine-protein kinase FLT3 (Homo sapiens), P36888 [D835V]; settings: Compound concentration 1000.0 nM
[42] = target: Serine/threonine-protein kinase ULK3 (Homo sapiens) (UniProt Q6PHR2); settings: Compound concentration 1000.0 nM
Sequence of Serine/threonine-protein kinase ULK3 (Homo sapiens) (Q6PHR2 whole entry): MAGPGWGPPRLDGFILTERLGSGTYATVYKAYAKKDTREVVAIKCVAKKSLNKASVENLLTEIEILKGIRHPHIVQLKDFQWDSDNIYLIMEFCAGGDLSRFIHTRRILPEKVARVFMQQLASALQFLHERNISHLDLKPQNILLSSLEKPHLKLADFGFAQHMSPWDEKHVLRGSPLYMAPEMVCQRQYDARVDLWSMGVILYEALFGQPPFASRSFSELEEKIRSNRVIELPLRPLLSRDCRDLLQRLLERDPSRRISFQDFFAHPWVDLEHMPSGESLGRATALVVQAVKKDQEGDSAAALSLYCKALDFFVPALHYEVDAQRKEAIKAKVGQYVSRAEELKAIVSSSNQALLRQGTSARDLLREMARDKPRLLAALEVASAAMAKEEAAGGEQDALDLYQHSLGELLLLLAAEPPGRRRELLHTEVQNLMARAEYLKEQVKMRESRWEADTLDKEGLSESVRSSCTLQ

[43] = target: cGMP-dependent protein kinase 2 (Homo sapiens) (UniProt Q13237); settings: Compound concentration 1000.0 nM
[44] = target: Macrophage-stimulating protein receptor (Homo sapiens) (UniProt Q04912); settings: Compound concentration 1000.0 nM
[45] = target: Ephrin type-A receptor 5 (Homo sapiens) (UniProt P54756); settings: Compound concentration 1000.0 nM

Sequence of Calcium/calmodulin-dependent protein kinase type II subunit alpha (Homo sapiens) (Q9UQM7 whole entry): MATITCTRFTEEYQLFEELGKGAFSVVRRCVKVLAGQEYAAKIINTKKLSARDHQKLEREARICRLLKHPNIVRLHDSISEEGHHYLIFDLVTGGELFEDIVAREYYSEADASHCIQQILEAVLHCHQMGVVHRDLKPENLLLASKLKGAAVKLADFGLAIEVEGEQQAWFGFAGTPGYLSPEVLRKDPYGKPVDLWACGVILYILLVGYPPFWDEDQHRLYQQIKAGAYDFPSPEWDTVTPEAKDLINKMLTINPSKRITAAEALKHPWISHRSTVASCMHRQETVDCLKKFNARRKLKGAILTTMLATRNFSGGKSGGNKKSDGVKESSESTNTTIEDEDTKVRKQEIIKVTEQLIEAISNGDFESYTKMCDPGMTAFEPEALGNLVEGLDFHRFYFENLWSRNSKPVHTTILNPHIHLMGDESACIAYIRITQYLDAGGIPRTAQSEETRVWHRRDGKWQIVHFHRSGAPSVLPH

Molecule `O=C(N1CCS(=O)(=O)CC1)N1C[C@H](c2ccc(OC(F)(F)F)cc2)C[C@H](c2nc(C3CC3)no2)C1` [BAY-386] has a residual activity [1] of 92%, a residual activity [2] of 97% and a residual activity [3] of 100%. The residual activity [4] was 100%, the residual activity [5] was 100% and the residual activity [6] was 0%. For the same molecule, the residual activity [7] was 100%, the residual activity [8] was 100% and the residual activity [9] was 90%. It also gave a residual activity [10] of 100%, a residual activity [11] of 100% and a residual activity [12] of 100%. For the same molecule, the residual activity [13] was 100%, the residual activity [14] was 100% and the inhibition [15] was -0.71%. For the same molecule, the residual activity [16] was 100%, the % Inhibition of Control Agonist Response (Mean n=2) [17] was 41.9% and the % of Control Agonist Response (Mean n=2) [17] was 0.7%. The residual activity [18] was 100%, the residual activity [19] was 100% and the residual activity [20] was 100%. It also gave a residual activity [21] of 100%, a residual activity [22] of 100% and a residual activity [23] of 100%. It also gave a residual activity [24] of 100%, a residual activity [25] of 100% and a residual activity [26] of 98%. It also gave a residual activity [27] of 93%, a residual activity [28] of 85% and an inhibition [29] of 2.41%. For the same molecule, the residual activity [30] was 96%, the residual activity [31] was 98% and the residual activity [32] was 66%. The residual activity [33] was 100%, the residual activity [34] was 100% and the residual activity [35] was 100%. The residual activity [36] was 100%, the residual activity [37] was 100% and the residual activity [38] was 73%. For the same molecule, the residual activity [39] was 100%, the residual activity [40] was 96% and the residual activity [41] was 100%. The residual activity [42] was 93%, the residual activity [43] was 100% and the residual activity [44] was 100%. For the same molecule, the residual activity [45] was 96%.
`Cc1noc([C@H]2C[C@@H](c3ccc(C(F)(F)F)cc3)CN(C(=O)N3CCS(=O)(=O)C3)C2)n1` [BAY-448] gave a residual activity [1] of 82%, a residual activity [2] of 100% and a residual activity [3] of 100%. It also gave a residual activity [4] of 100%, a residual activity [5] of 100% and a residual activity [6] of 100%. The residual activity [7] was 100%, the residual activity [8] was 100% and the residual activity [9] was 87%. The residual activity [10] was 100%, the residual activity [11] was 100% and the residual activity [12] was 100%. The residual activity [13] was 100%, the residual activity [14] was 100% and the inhibition [15] was -0.15%. It also gave a residual activity [16] of 100%, a % Inhibition of Control Agonist Response (Mean n=2) [17] of 29.1% and a % of Control Agonist Response (Mean n=2) [17] of -4.2%. For the same molecule, the residual activity [18] was 100%, the residual activity [19] was 100% and the residual activity [20] was 100%. For the same molecule, the residual activity [21] was 89%, the residual activity [22] was 100% and the residual activity [23] was 100%. It also gave a residual activity [24] of 100%, a residual activity [25] of 100% and a residual activity [26] of 100%. The residual activity [27] was 100%, the residual activity [28] was 100% and the inhibition [29] was -2.77%. The residual activity [30] was 100%, the residual activity [31] was 100% and the residual activity [32] was 83%. It also gave a residual activity [33] of 85%, a residual activity [34] of 89% and a residual activity [35] of 100%. The residual activity [36] was 100%, the residual activity [37] was 100% and the residual activity [38] was 100%. It also gave a residual activity [39] of 74%, a residual activity [40] of 100% and a residual activity [41] of 91%. The residual activity [42] was 77%, the residual activity [43] was 100% and the residual activity [44] was 100%. The residual activity [45] was 100%.
